# Test results from patent publication US5114920A, “BU-3292T antibiotics” (priority 1988, dated 1992).
# Starred links: 1 amine or outer side, 2 acyl side, 3 side chain; linkers in the order of their positions; H or OH if unused. Positions of bridges follow the written chain, without caps; N, C: chain ends. Non-standard residues stand in square brackets, D forms with d. Residues, ends and D or L forms follow the SMILES beside them. Chains are numbered I, II in the order given. Actinocin(9to1) = Cc1c2oc3c(C)ccc(C(=O)[*:1])c3nc-2c(C(=O)[*:2])c(N)c1=O; NMeV = CN[C@H](C(=O)O)C(C)C; Sar = CNCC(=O)O
# Legend:
# [1] = Body weight change in P388-bearing mice; settings: QD × 3, ip
# Protocol: (§1) BU-3292T components A and B were tested for in vitro cytotoxicity against murine and human tumor cells and for in vivo antitumor activity in mice. Actinomycin D was used as a reference compound in both in vitro and in vivo experiments. B16-F10 (murine melanoma) and Moser (human colorectal carcinoma) cells were grown to the logarithmic phase in enriched Eagle minimum essential medium (MEM) supplemented with fetal calf serum (FCS, 10%) and kanamycin (60 mcg/ml), harvested and inoculated into wells of a 96-well microtiter plate with test materials at the concentrations of 3.0×10^4 and 6.0×10^4 cells/ml, respectively. They were incubated at 37° C. in humidified atmosphere of 5% CO2 and 95% air for 72 hours. The cytotoxic activity was determined colorimetrically at 540 nm after staining viable cells with neutral red. […] Inhibitory effects of BU-3292T component A on macromolecule (DNA, RNA and protein) synthesis were determined in vitro. Cultured L1210 murine leukemia cells (5×10^5 cells/ml) were incubated with test materials at 37° C. for 15 minutes and then further incubated for 60 minutes after the addition of labelled precursor, ^3 H-thymidine, ^14 C-uridine or ^3 H-leucine, into the cultured mixtures. After washing with chilled 5% trichloroacetic acid solution, the radioactivity incorporated into the acid-insoluble fraction of the tumor cells was determined in a liquid scintillation counter. […] In vivo antitumor activities of BU-3292T components A and B were tested in tumor-bearing female CDF mice. After the intraperitoneal implantation of diluted ascitic fluid with 1.0 ×10^6 lymphocytic leukemia P388 cells into the mice, test compounds were administered intraperitoneally once a day on days 1, 2 and 3 (QD×3).
# [2] = system: Clostridium perfringens A9635; type: cell-based; settings: GAM agar
# [3] = system: Protein synthesis in L1210 leukemia cells; test: Inhibition of macromolecule synthesis, 3H-leucine incorporation; type: cell-based, murine; settings: L1210 leukemia cells; 3H-leucine
# Protocol: as §1
# [4] = system: DNA synthesis in L1210 leukemia cells; test: Inhibition of macromolecule synthesis, 3H-thymidine incorporation; type: cell-based, murine
# Protocol: BU-3292T components A and B were tested for in vitro cytotoxicity against murine and human tumor cells and for in vivo antitumor activity in mice. Actinomycin D was used as a reference compound in both in vitro and in vivo experiments. B16-F10 (murine melanoma) and Moser (human colorectal carcinoma) cells were grown to the logarithmic phase in enriched Eagle minimum essential medium (MEM) supplemented with fetal calf serum (FCS, 10%) and kanamycin (60 mcg/ml), harvested and inoculated into wells of a 96-well microtiter plate with test materials at the concentrations of 3.0×10^4 and 6.0×10^4 cells/ml, respectively. They were incubated at 37° C. in humidified atmosphere of 5% CO2 and 95% air for 72 hours. The cytotoxic activity was determined colorimetrically at 540 nm after staining viable cells with neutral red. […] Inhibitory effects of BU-3292T component A on macromolecule (DNA, RNA and protein) synthesis were determined in vitro. […] After washing with chilled 5% trichloroacetic acid solution, the radioactivity incorporated into the acid-insoluble fraction of the tumor cells was determined in a liquid scintillation counter. […]
# [5] = system: RNA synthesis in L1210 leukemia cells; test: Inhibition of macromolecule synthesis, 14C-uridine incorporation; type: cell-based, murine; settings: L1210 leukemia cells; 14C-uridine
# Protocol: as §1
# [6] = system: Pseudomonas aeruginosa A9930; test: Antimicrobial activity, serial two-fold agar dilution method; type: cell-based; settings: Nutrient agar
# Protocol: (§2) The antimicrobial activity of BU-3292T A and B was determined against aerobic and anaerobic bacteria and fungi by a serial two-fold agar dilution method. BU-3292T A and B are active against aerobic gram-positive bacteria, and weakly active against anaerobic gram-negative bacteria and fungi.
# [7] = system: Streptococcus faecalis A9612; test: as above; type: cell-based; settings: Nutrient agar
# Protocol: as §2
# [8] = system: Bacillus subtilis PCI-219; test: as above; type: cell-based; settings: Nutrient agar
# Protocol: as §2
# [9] = system: Bacteroides fragilis A22693; test: as above; type: cell-based; settings: GAM agar
# Protocol: as §2
# [10] = system: Candida albicans IAM 4888; test: as above; type: cell-based; settings: Sabouraud dextrose agar
# Protocol: as §2
# [11] = system: Escherichia coli NIHJ; test: as above; type: cell-based; settings: Nutrient agar
# Protocol: as §2
# [12] = system: Mucor spinosus IFO 5317; test: as above; type: cell-based
# Protocol: as §2
# [13] = system: Trichophyton mentagrophytes D155; test: as above; type: cell-based; settings: Sabouraud dextrose agar
# Protocol: as §2
# [14] = system: Fusarium moniliforme A2284; test: as above; type: cell-based; settings: Sabouraud dextrose agar
# Protocol: as §2
# [15] = system: Staphylococcus aureus smith; test: as above; type: cell-based; settings: Nutrient agar
# Protocol: as §2
# [16] = system: Micrococcus luteus 1001; test: as above; type: cell-based; settings: Nutrient agar
# Protocol: as §2
# [17] = system: Propionibacterium anaerobius A21905; test: as above; type: cell-based; settings: GAM agar
# Protocol: as §2
# [18] = system: Proteus vulgalis A9436; test: as above; type: cell-based; settings: Nutrient agar
# Protocol: as §2
# [19] = system: Proteus mirabilis A9554; test: as above; type: cell-based; settings: Nutrient agar
# Protocol: as §2
# [20] = system: Clostridium difficile A21675; test: as above; type: cell-based; settings: GAM agar
# Protocol: as §2
# [21] = system: Cryptococcus neoformans IAM 4519; test: as above; type: cell-based; settings: Sabouraud dextrose agar
# Protocol: as §2
# [22] = system: Klebsiella pneumoniae D11; test: as above; type: cell-based; settings: Nutrient agar
# Protocol: as §2
# [23] = system: Streptococcus pyogenes A20201; test: as above; type: cell-based; settings: Nutrient agar
# Protocol: as §2
# [24] = system: Staphylococcus aureus 209P; test: as above; type: cell-based; settings: Nutrient agar
# Protocol: as §2
# [25] = system: Staphylococcus epidermidis D153; test: as above; type: cell-based; settings: Nutrient agar
# Protocol: as §2
# [26] = system: Propionibacterium acnes A21933; test: as above; type: cell-based; settings: GAM agar
# Protocol: as §2
# [27] = system: Aspergillus fumigatus IAM 2530; test: as above; type: cell-based; settings: Sabouraud dextrose agar
# Protocol: as §2
# [28] = system: B16-F10 (murine melanoma) cells; test: In vitro cytotoxicity, neutral red staining; type: cell-based; settings: B16-F10; 72 hours
# Protocol: as §1
# [29] = system: Moser (human colorectal carcinoma) cells; test: In vitro cytotoxicity, neutral red staining; type: cell-based; settings: 72 hours
# Protocol: as §1
# [30] = system: lymphocytic leukemia P388; test: Antitumor activity against P388 leukemia (ip); type: in vivo, mice; settings: QD × 3, ip
# Protocol: as §1
smiles,measurement,setting,value
"Cc1c2oc3c(C)ccc(C(=O)N[C@@H]4C(=O)N[C@H](C(C)C)C(=O)N5CCC[C@H]5C(=O)N(C)CC(=O)N(C)[C@@H](C(C)C)C(=O)O[C@@H]4C)c3nc-2c(C(=O)N[C@@H]2C(=O)N[C@H](C(C)C)C(=O)N3CCC[C@H]3C(=O)N(C)CC(=O)N(C)[C@@H](C(C)C)C(=O)O[C@@H]2C)c(N)c1=O [Actinomycin D, reference compound] (I: T[dV]P[Sar][NMeV] / II: T[dV]P[Sar][NMeV]; ester I:1-I:C, II:1-II:C; linker I:N-II:N via Actinocin(9to1))",Body weight change on day 4,[1]; 0.001 mg/kg/day,+1.3 g
same,Body weight change on day 4,[1]; 0.01 mg/kg/day,+1.3 g
same,Body weight change on day 4,[1]; 0.03 mg/kg/day,+0.5 g
same,Body weight change on day 4,[1]; 0.1 mg/kg/day,-2.0 g
same,Body weight change on day 4,[1]; 0.3 mg/kg/day,-3.5 g
same,MIC,[2],6.3 µg/mL
same,IC50 Protein,[3],> 100 µg/mL
same,IC50 DNA,[4],8.1 µg/mL
same,IC50 RNA,[5],0.17 µg/mL
same,MIC,[6],100 µg/mL
same,MIC,[7],0.1 µg/mL
same,MIC,[8],0.2 µg/mL
same,MIC,[9],> 100 µg/mL
same,MIC,[10],> 100 µg/mL
same,MIC,[11],> 100 µg/mL
same,MIC,"[12]; Mucor spinosus IFO 5317, Sabouraud dextrose agar",> 100 µg/mL
same,MIC,[12]; in vitro against Mucor spinosus IF05317,> 100 µg/mL
same,MIC,[13],> 100 µg/mL
same,MIC,[14],> 100 µg/mL
same,MIC,[15],0.4 µg/mL
same,MIC,[16],0.2 µg/mL
same,MIC,[17],1.6 µg/mL
same,MIC,[18],> 100 µg/mL
same,MIC,[19],> 100 µg/mL
same,MIC,[20],25 µg/mL
same,MIC,[21],> 100 µg/mL
same,MIC,[22],25 µg/mL
same,MIC,[23],0.2 µg/mL
same,MIC,[24],0.4 µg/mL
same,MIC,[25],0.4 µg/mL
same,MIC,[26],6.3 µg/mL
same,MIC,[27],> 100 µg/mL
same,IC50,[28],0.002 µg/mL
same,IC50,[29],0.9 µg/mL
same,MST (Median survival time),[30]; 0.001 mg/kg/day,11.0 days
same,T/C,[30]; 0.001 mg/kg/day,110%
same,MST (Median survival time),[30]; 0.003 mg/kg/day,13.5 days
same,T/C,[30]; 0.003 mg/kg/day,135%
same,MST (Median survival time),[30]; 0.01 mg/kg/day,14.0 days
same,T/C,[30]; 0.01 mg/kg/day,140%
same,MST (Median survival time),[30]; 0.03 mg/kg/day,15.0 days
same,T/C,[30]; 0.03 mg/kg/day,150%
same,MST (Median survival time),[30]; 0.1 mg/kg/day,16.0 days
same,T/C,[30]; 0.1 mg/kg/day,160%
same,MST (Median survival time),[30]; 0.3 mg/kg/day,7.0 days
same,T/C,[30]; 0.3 mg/kg/day,70%
